Test: Human HepG2 cell viability assay in 384 well format
Assay type: toxicity, cell-based
Set-up: dose 125 nL, time 70.5 hour; concentration not given beside the values
Settings: HepG2 cells, read-out: Inhibition

Structure (SMILES)	cytotoxicity at 70.5 h [%]
Cc1ccc(CNC(=O)CN2CCCCC2Cn2cncn2)s1 (stereo not drawn)	-7.67
CCc1noc(C(C)N2CCN(C)CC2)n1 (stereo not drawn)	-7.05
Cc1cnn(C2CCCN(C(=O)Cc3ccc(C#N)cc3)C2)c1 (stereo not drawn)	-2.96
Cc1cnn(CC2CCCN2CCCS(=O)(=O)N(C)C)c1 (stereo not drawn)	2.72
CN(Cc1ccc2c(c1)OCO2)C(=O)Cn1cccnc1=O	17.3
NC(=O)C1CCN(C(=O)NCc2ccccc2-n2cccn2)CC1	-4.82
CC(=O)NC1CCCN(C(=O)Nc2cccnc2-n2cccn2)C1 (stereo not drawn)	-6.08
CN(C(=O)Cc1ccccc1Cl)C1CCN(c2ccccn2)CC1	2.75
Cc1cnn(C2CCCN(C(=O)Cc3ccc4c(c3)CCO4)C2)c1 (stereo not drawn)	13.9
CN(C(=O)Cc1ccccc1F)C1CCN(c2ccccn2)CC1	-3.14
Cc1nn(-c2ccccc2)cc1C(=O)N1CCCC(n2ccnc2)C1 (stereo not drawn)	-0.753
Cc1cc(C)n(CC2CCCN2C(=O)c2ccc3nnc(C)n3c2)n1 (stereo not drawn)	-0.407
Cn1cnc2c1CCN(CCCS(=O)(=O)c1ccccc1)C2	24.3
CCN1CCC(CNC(=O)Nc2cc(C)on2)C1 (stereo not drawn)	-4.44
Cc1cc(C)cc(OCCN(C)C(=O)NC(C)c2nncn2C)c1 (stereo not drawn)	17.7
COc1ccc(N2CCN(C(=O)NC(C)c3nncn3C)CC2)cc1 (stereo not drawn)	-3.61
CC(NC(=O)N1CCC(c2ccccc2)CC1)c1nncn1C (stereo not drawn)	-3.28
CCOc1ncccc1CNC(=O)NCCNC(=O)c1ccco1	-4.58
Cc1cnn(CC2CN(CCc3cccs3)CCO2)c1 (stereo not drawn)	-2.69
COc1cc(C(=O)N2CCCS2(=O)=O)ccc1OC(C)C	21.8
O=C(Cc1csc(-c2ccco2)n1)N1CCCC1Cn1cccn1 (stereo not drawn)	-7.55
CN(Cc1cccs1)C(=O)CN1CCOC(Cn2cncn2)C1 (stereo not drawn)	17.4
Cc1nc(C(=O)N2CCCC2c2noc(C)n2)c[nH]1 (stereo not drawn)	-4.04
Cn1cnc2c1CCN(CCS(=O)(=O)c1ccc(Cl)cc1)C2	-5.54

Structure (SMILES)	cytotoxicity at 70.5 h [%]
Cc1cc(CN(C)C(=O)c2ccc(OC(C)C)nc2)no1	20
Cn1c(CN2CCCC(c3noc(C4CC4)n3)C2)cc(=O)n(C)c1=O (stereo not drawn)	-11.3
Cc1cc(OCC(=O)N2CCCC2c2noc(C)n2)no1 (stereo not drawn)	-13.8
CC(C)c1cc(NC(=O)CN2CCCC2c2noc(C(C)C)n2)on1 (stereo not drawn)	-12
Cc1cccc(C(=O)NCCCN2CCc3ccccc3C2)c1C	-7.53
Cn1ncc(NCc2cccc(F)c2)c(Cl)c1=O	-13.3
CC(Cn1cccn1)NC(=O)NCCc1cccs1 (stereo not drawn)	-6.38
Cc1ccccc1C(=O)NCCCN1CCc2ccccc2C1	19.4
CNc1snc(C)c1C(=O)N1CCCC(n2cccn2)C1 (stereo not drawn)	-15
CNc1snc(C)c1C(=O)N1CCCC(n2ccnc2)C1 (stereo not drawn)	-9.44
Cc1cn2c(n1)CCC(NC(=O)c1cc[nH]n1)C2 (stereo not drawn)	-4.85
Cc1ccc(-c2noc(CN3CCc4nn(C)c(=O)cc4C3)n2)cc1	-4.24
Cn1nc2c(cc1=O)CN(Cc1nc(-c3cccnc3)no1)CC2	-3.78
CC(C)c1nc(C2CCCN2Cc2cc(=O)n(C)c(=O)n2C)no1 (stereo not drawn)	-4.31
Cc1cc(NC(=O)CN2CCCC2c2noc(C(C)C)n2)no1 (stereo not drawn)	14.1
Cc1cc(NC(=O)CN2CCCC2c2noc(C3CC3)n2)n(C)n1 (stereo not drawn)	-10.4
COc1cccc(CN2CCCC(c3cc(C(N)=O)[nH]n3)C2)c1 (stereo not drawn)	-12.6
Cn1nc2c(cc1=O)CN(Cc1nc(-c3ccco3)no1)CC2	-7.45
CNc1snc(C)c1C(=O)N1CCCC(n2cc(C)cn2)C1 (stereo not drawn)	-8.17
COc1c(C2CCCN2Cc2noc(C)n2)c(C)nn1C (stereo not drawn)	44.7
CCN(CCC1CCN(C(=O)NCc2nncn2CC)CC1)CC1CC1	15.6
Cc1nn(C)c(N(C)C)c1CNCc1ccc(Cn2cncn2)cc1	22.4
Cc1cnn(CCNCc2ccc(OCc3cccnc3)cc2)c1	-4.14
Cc1cc(C(=O)NCc2ccc(N3CCCC(C(N)=O)C3)cc2)on1 (stereo not drawn)	-3.31

Structure (SMILES)	cytotoxicity at 70.5 h [%]
Cc1nn(C)c(N(C)C)c1CNCc1ccccc1CO	-0.166
O=C(c1ccc2c(c1)OCO2)N1CCCC(n2ccnc2)C1 (stereo not drawn)	10.2
COc1cc(C(=O)N2CCCC(n3ccnc3)C2)cc2c1OCCO2 (stereo not drawn)	-7.87
CCc1ccsc1C(=O)N1CCN(CC(C)(C)O)CC1	-5.61
CN(C)CC1CN(Cc2coc(-c3ccccc3)n2)CCO1 (stereo not drawn)	-5.29
CC(C)(O)CN1CCN(C(=O)c2sccc2C#N)CC1	-3.64
Cc1cnn(CC2CCCN2Cc2noc(C(C)C)n2)c1 (stereo not drawn)	-5.54
Cc1cc(C(=O)N2CCCC2c2c(C)nn(C)c2C)no1 (stereo not drawn)	-10.1
Cc1cnn(CC2CCCN2Cc2noc(CC(C)C)n2)c1 (stereo not drawn)	-0.847
O=C(c1sccc1C1CC1)N1CCN(CC(F)(F)F)CC1	-1.63
CC(C)OCC(=O)N1CCCN(Cc2ccc(C#N)cc2)CC1	5.66
COCC(=O)NC(C)Cc1cccc(OC)c1 (stereo not drawn)	0.122
COc1c(CNC(c2ccc(F)cc2)C(C)(C)C)c(C)nn1C (stereo not drawn)	3.66
CC(C)(C)n1cc(C(=O)N2CCCN(Cc3cccs3)CC2)cn1	-2.48
CCN(Cc1ccc2c(c1)OCO2)C(=O)CCc1c(C)nc(C)[nH]c1=O	-4.97
Cc1nc2ccccc2c(=O)n1CCC(=O)N1CCNC(=O)C1	-2.46
Cc1nc(-c2ccsc2)ccc1C(=O)NCCN1CCOCC1	0.983
COC(=O)c1cc(C(=O)N2CCCCCC2)n(-c2ccccc2)n1	11.6
O=C(Nc1cnn(CCN2CCOCC2)c1)c1ccccn1	-4.34
COC(=O)c1cc(C(=O)N2CCOCC2(C)C)n(-c2ccccc2)n1	-0.593
Cc1nc(-c2ccsc2)ccc1C(=O)NCCC(=O)N1CCCC1	-3.29
CCNc1cc2c(nn1)CCN(C(=O)c1ccc(NC3CC3)nc1)C2	1.85
CCNc1cc2c(nn1)CCN(C(=O)c1ccnc(N(C)C)c1)C2	0.651
Cc1ccc(CC(=O)N2CCN(CC(O)c3ccccc3)CC2)cn1 (stereo not drawn)	1.06

Structure (SMILES)	cytotoxicity at 70.5 h [%]
CNc1nc(CNC(=O)Nc2ccccc2SC)cs1	3.31
Cc1ccc(SCC(=O)NS(=O)(=O)c2ccc3c(c2)OCCO3)cc1	-1.91
Cc1cnn(CCNCc2csc(-c3ccc(F)cc3)n2)c1	3.66
Cc1cnn(CCNCc2nc(COc3ccc(F)cc3)no2)c1	6.22
CCc1ccc(C(=O)N2CCN(CC(C)O)CC2)o1 (stereo not drawn)	2.04
Cc1nc(C)n(CC2CCCN2CCc2cccs2)n1 (stereo not drawn)	39.6
c1ccc(-c2cnc(CN3CCn4c(nnc4C4CC4)C3)o2)cc1	-9.82
Clc1ccccc1-c1nc(CNCCn2cccn2)cs1	-6.01
CC(C(=O)NCc1ccnc(N2CCCC2)c1)n1cncn1 (stereo not drawn)	-1.47
CC(=O)N1CCCN(C(=O)CCc2c(C)noc2C)CC1	-16.4
CCn1ccnc1CN1CCN(Cc2ccc(C#N)cc2)CC1	28.9
CCOc1ccccc1OC1CCN(C(=O)c2cc[nH]n2)CC1	-1.68
CC(NC(=O)N(C)Cc1ccsc1)c1ccc2c(c1)OCO2 (stereo not drawn)	-14.1
Cc1cc(C)c(CNC(=O)NCc2ccc3c(c2)CCC3)c(=O)[nH]1	-10.5
Cc1ccc(C(=O)N2CCN(CC(O)c3ccc(F)cc3)CC2)s1 (stereo not drawn)	-6.7
CC(C)Oc1ncccc1CNC(=O)N1CCC1c1ccccc1 (stereo not drawn)	26.6
Cc1cc2n(n1)CC(CNCc1ccc(-n3cccn3)nc1)CN2 (stereo not drawn)	3.95
CCOc1ccccc1C(CC(=O)Nc1nc(C)cs1)NC(C)=O (stereo not drawn)	-8.99
Cc1cc(C)n(CC2CCCN2C(=O)CCCc2ccccn2)n1 (stereo not drawn)	-5.04
CC(C)c1ncc2c(n1)CN(Cc1ccc(C(N)=O)cc1)CC2	24.1
CC(C(=O)NCc1cccc(N2CC=CC2)c1)n1cccn1 (stereo not drawn)	-7.35
Cc1nc(C2CCCN2C(=O)c2cc3c(s2)CCCC3)no1 (stereo not drawn)	-3.98
O=C(Cc1ccc2c(c1)CCO2)N1CCN(c2cnccn2)CC1	23.2
CCOC(=O)N1CCC(C(=O)c2cc(F)ccc2F)CC1	-8.51

Structure (SMILES)	cytotoxicity at 70.5 h [%]
C=C(Cl)CN1CCC(C(=O)c2cc(F)ccc2F)CC1	-10.5
Cc1nc(C2CCCN2CC(=O)N2CCCc3ccccc32)no1 (stereo not drawn)	-6.37
Cc1ccc(-c2nc(CNCCn3cccn3)cs2)o1	-7.84
CC(C(=O)NCCOc1ccc2c(c1)OCO2)n1cncn1 (stereo not drawn)	-13.4
COc1ccc2c(c1)CCCN2Cc1nc2c(cnn2C)c(=O)[nH]1	-11.4
Cc1cc(C)cc(C2(C(=O)NC(C)Cn3ccnc3)CC2)c1 (stereo not drawn)	9.35
N#CC1(C(=O)N2CCN(Cc3cscn3)CC2)CCCC1	14.2
CCn1cnnc1C1CCN(C(=O)c2cnc(C3CC3)s2)CC1	-10.2
CCc1nnc2n1CCN(C(=O)Cc1csc(-c3ccco3)n1)C2	-15.6
CCc1nnc2n1CCN(C(=O)c1ccc(C(F)(F)F)nc1C)C2	-15.4
CCc1nc2n(n1)CC(NCC(=O)Nc1cc(C)on1)CC2 (stereo not drawn)	12.5
CCc1nc2n(n1)CC(NCC(=O)Nc1ccc(Cl)cn1)CC2 (stereo not drawn)	-18.9
O=C(NCc1ccccn1)N(Cc1ccc(F)cc1F)C1CC1	-17.3
O=C(Cn1cnnn1)N1CCCCC1Cn1cccn1 (stereo not drawn)	17.9
N#CC1(C(=O)N2CCN(Cc3ccon3)CC2)CCC1	-20
CCCc1noc(CCC(=O)N2CCCC2c2noc(C3CC3)n2)n1 (stereo not drawn)	-16.9
CCc1noc(CN2CCN(C(=O)N(C)C)CC2)n1	20.5
CC(C)c1noc(CCCC(=O)N2CCC(Cc3cccnc3)CC2)n1	-20.7
CCCc1noc(CCC(=O)N2CCCC2c2ccsc2)n1 (stereo not drawn)	-16.1
Cc1cc(CN(C)C(=O)NCc2cccc(N3CCCC3=O)c2)no1	-25.6
CN(Cc1ccc(F)cc1)C(=O)CN1CCOC(Cn2cncn2)C1 (stereo not drawn)	40.3
Cc1ccc(CN(C)C(=O)CN2CCOC(Cn3cncn3)C2)o1 (stereo not drawn)	9.12
